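96-well plates; 48 h exposure; 5 concentrations. Endpoints by linear interpolation between flanking doses. Not reached: highest tested concentration assigned. At the TGI there is no net growth.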
Tests used:
Assay in all cases: NCI tumour cell line growth inhibition, 48 h
[1] = system: NCI-H460 lung
[2] = system: NCI-H226 lung
[3] = system: HT29 colon
[4] = system: HOP-92 NSCLC
[5] = system: UACC-62 melanoma
[6] = system: SNB-19 CNS
[7] = system: K-562 leukemia
[8] = system: CCRF-CEM leukemia
[9] = system: A549 NSCLC
[10] = system: SF-539 CNS
[11] = system: MALME-3M melanoma
[12] = system: NCI-H23 lung
[13] = system: KM12 colon
[14] = system: XF 498 CNS
[15] = system: U251 CNS
[16] = system: RXF 393 renal
[17] = system: M19-MEL melanoma
[18] = system: IGROV1 ovarian
[19] = system: OVCAR-5 ovarian
[20] = system: DMS 114 small cell lung
[21] = system: RXF-631 renal
[22] = system: DMS 273 small cell lung
[23] = system: SNB-78 CNS
[24] = system: RPMI-8226 leukemia
[25] = system: SK-MEL-5 melanoma
[26] = system: SN12C renal
[27] = system: LXFL 529 NSCLC
[28] = system: HOP-18 NSCLC
[29] = system: OVCAR-3 ovarian
[30] = system: EKVX NSCLC
[31] = system: HCT-15 colon
[32] = system: KM20L2 colon
[33] = system: ACHN renal
[34] = system: 786-0 renal
[35] = system: CAKI-1 renal
[36] = system: LOX IMVI melanoma
[37] = system: UACC-257 melanoma
[38] = system: DLD-1 colon
[39] = system: UO-31 renal
[40] = system: NCI-H522 lung
[41] = system: SK-MEL-28 melanoma
[42] = system: SNB-75 CNS
[43] = system: M14 melanoma
[44] = system: A498 renal
[45] = system: OVCAR-8 ovarian
[46] = system: OVCAR-4 ovarian
[47] = system: HCT-116 colon
[48] = system: HCC-2998 colon
[49] = system: SK-OV-3 ovarian
[50] = system: SF-268 CNS
[51] = system: HOP-62 NSCLC
[52] = system: SW-620 colon
[53] = system: HL-60(TB) leukemia
[54] = system: COLO 205 colon
[55] = system: SK-MEL-2 melanoma
[56] = system: TK-10 renal
[57] = system: SF-295 CNS
[58] = system: SR leukemia
[59] = system: MOLT-4 leukemia
[60] = system: NCI/ADR-RES ovarian
[61] = system: MCF7 breast
[62] = system: MDA-MB-231 breast
[63] = system: T-47D breast
[64] = system: SN12K1 renal
[65] = system: P388/ADR leukemia
[66] = system: MDA-MB-435
[67] = system: BT-549 breast
[68] = system: DU-145 prostate
[69] = system: PC-3 prostate
[70] = system: P388 leukemia
[71] = system: MDA-N
[72] = system: HS 578T breast

Cc1cc(N(CCC#N)S(C)(=O)=O)ccc1C=Nc1ccc(C(=O)NN2C(=O)/C(=C/c3ccc(N(CCC#N)CCC#N)cc3C)N=C2c2cc([N+](=O)[O-])ccc2Cl)cc1
TGI [1]: > 100 µM
TGI [2]: > 100 µM
TGI [3]: > 100 µM
TGI [4]: > 100 µM
TGI [5]: > 100 µM
TGI [6]: > 100 µM
TGI [7]: > 100 µM
TGI [8]: > 100 µM
TGI [9]: > 100 µM
TGI [10]: > 100 µM
TGI [11]: > 100 µM
TGI [12]: > 100 µM
TGI [13]: > 100 µM
TGI [14]: > 100 µM
TGI [15]: > 100 µM
TGI [16]: > 100 µM
TGI [17]: > 100 µM
TGI [18]: > 100 µM
TGI [19]: > 100 µM
TGI [20]: > 100 µM
TGI [21]: > 100 µM
TGI [22]: > 100 µM
TGI [23]: > 100 µM
TGI [24]: > 100 µM
TGI [25]: > 100 µM
TGI [26]: > 100 µM
TGI [27]: > 100 µM
TGI [28]: > 100 µM
TGI [29]: > 100 µM
TGI [30]: > 100 µM
TGI [31]: > 100 µM
TGI [32]: > 100 µM
TGI [33]: > 100 µM
TGI [34]: > 100 µM
TGI [35]: > 100 µM
TGI [36]: > 100 µM
TGI [37]: > 100 µM
TGI [38]: > 100 µM
TGI [39]: > 100 µM
TGI [40]: > 100 µM
TGI [41]: > 100 µM
TGI [42]: > 100 µM
TGI [43]: > 100 µM
TGI [44]: > 100 µM
TGI [45]: > 100 µM
TGI [46]: > 100 µM
TGI [47]: > 100 µM
TGI [48]: > 100 µM
TGI [49]: > 100 µM
TGI [50]: > 100 µM
TGI [51]: > 100 µM
TGI [52]: > 100 µM
TGI [53]: > 100 µM
TGI [54]: > 100 µM
TGI [55]: > 100 µM
TGI [56]: > 100 µM

COC(C(=O)NCCCCNC(=O)C(OC)c1ccccc1)c1ccccc1 (stereo not drawn)
TGI [1]: > 100 µM
TGI [2]: > 100 µM
TGI [3]: > 100 µM
TGI [57]: > 100 µM
TGI [4]: > 100 µM
TGI [5]: > 100 µM
TGI [6]: > 100 µM
TGI [7]: > 100 µM
TGI [8]: > 100 µM
TGI [9]: > 100 µM
TGI [10]: > 100 µM
TGI [11]: > 100 µM
TGI [12]: > 100 µM
TGI [13]: > 100 µM
TGI [14]: > 100 µM
TGI [58]: > 100 µM
TGI [15]: > 100 µM
TGI [16]: > 100 µM
TGI [17]: > 100 µM
TGI [18]: > 100 µM
TGI [19]: > 100 µM
TGI [20]: > 100 µM
TGI [21]: > 100 µM
TGI [22]: > 100 µM
TGI [23]: > 100 µM
TGI [24]: > 100 µM
TGI [25]: > 100 µM
TGI [26]: > 100 µM
TGI [27]: > 100 µM
TGI [28]: > 100 µM
TGI [29]: > 100 µM
TGI [30]: > 100 µM
TGI [31]: > 100 µM
TGI [32]: > 100 µM
TGI [33]: > 100 µM
TGI [34]: > 100 µM
TGI [35]: > 100 µM
TGI [36]: > 100 µM
TGI [37]: > 100 µM
TGI [38]: > 100 µM
TGI [39]: > 100 µM
TGI [40]: > 100 µM
TGI [41]: > 100 µM
TGI [42]: > 100 µM
TGI [43]: > 100 µM
TGI [44]: > 100 µM
TGI [45]: > 100 µM
TGI [46]: > 100 µM
TGI [47]: > 100 µM
TGI [49]: > 100 µM
TGI [50]: > 100 µM
TGI [59]: > 100 µM
TGI [51]: > 100 µM
TGI [52]: > 100 µM
TGI [53]: > 100 µM
TGI [54]: > 100 µM
TGI [55]: > 100 µM
TGI [56]: > 100 µM

CCCCCCCCCCCCOCCCOP(=O)([O-])OCC[N+](C)(C)C
TGI [1]: > 70 µM
TGI [60]: > 100 µM
TGI [2]: 65.8 µM
TGI [3]: 61.7 µM
TGI [57]: > 100 µM
TGI [61]: > 100 µM
TGI [4]: 52.8 µM
TGI [5]: > 83.9 µM
TGI [6]: 46.9 µM
TGI [7]: > 76.5 µM
TGI [8]: 70.2 µM
TGI [9]: > 100 µM
TGI [10]: 54.9 µM
TGI [11]: > 84.4 µM
TGI [12]: 99.2 µM
TGI [13]: 9.77 µM
TGI [14]: > 89.4 µM
TGI [58]: > 73.5 µM
TGI [15]: 47.7 µM
TGI [16]: > 53.3 µM
TGI [62]: 40.1 µM
TGI [17]: > 100 µM
TGI [18]: 25.6 µM
TGI [19]: > 100 µM
TGI [22]: 35.5 µM
TGI [23]: > 89.5 µM
TGI [24]: 31.6 µM
TGI [25]: > 71.3 µM
TGI [63]: 38 µM
TGI [26]: > 76.7 µM
TGI [28]: > 100 µM
TGI [29]: > 100 µM
TGI [30]: > 100 µM
TGI [31]: > 73.3 µM
TGI [32]: > 100 µM
TGI [64]: > 100 µM
TGI [33]: > 80.2 µM
TGI [34]: 37.4 µM
TGI [35]: 47.5 µM
TGI [36]: 59.8 µM
TGI [37]: 98.9 µM
TGI [65]: > 100 µM
TGI [38]: > 95.8 µM
TGI [39]: > 89.5 µM
TGI [40]: 68.3 µM
TGI [41]: > 92.7 µM
TGI [42]: 71.1 µM
TGI [43]: 98.2 µM
TGI [44]: 83.6 µM
TGI [45]: > 80.3 µM
TGI [66]: > 70 µM
TGI [46]: > 100 µM
TGI [67]: 33.1 µM
TGI [47]: > 86.8 µM
TGI [48]: 24.9 µM
TGI [49]: > 100 µM
TGI [68]: > 75.1 µM
TGI [50]: 86 µM
TGI [59]: 65.1 µM
TGI [51]: > 100 µM
TGI [52]: > 100 µM
TGI [53]: 55.5 µM
TGI [54]: 31.7 µM
TGI [69]: 9.73 µM
TGI [70]: 97.7 µM
TGI [55]: > 100 µM
TGI [71]: 19.3 µM
TGI [72]: 57.7 µM
TGI [56]: 14.9 µM

Reference: PubChem BioAssay (NCI)
